Test [1] is described as follows: (§1) MMV: Anti-babesial activity assay. Parasite pRBCs at 1% parasitemia were cultivated in 100 ul with 96-well plates at 2.5% and 5% hematocrits. The parasites were cultivated in triplicate for 4 days without replacement of the medium for each concentration of the compound. It counts as functional, Babesia bigemina.
A short description of test [2]: as §1. The class given is functional, Babesia caballi.
The nature of test [3]: as §1. It counts as functional, Babesia equi.
A short description of test [4]: as §1. It counts as functional, Babesia bovis.

For the compound `CCOc1ccccc1CN1CCc2nc3cc(C(C)(C)C)nn3c(O)c2C1`, the concentration for half-maximal inhibition (IC50) (commonly the concentration that gives 50% inhibition) is 9.87 µM in test [1], 0.068 µM in test [2], 10.1 µM in test [3] and 20.2 µM in test [4].

As for `COc1ccc(C2NCCc3c2[nH]c2ccccc32)cc1CN1CCN(c2ccc(F)cc2)CC1` (stereo unspecified), the IC50 in test [1] amounted to 16.5 µM; in test [2], 10 µM; in test [3] it was 10.1 µM; in test [4], 3.71 µM.

Take `COc1ccc(C(=O)NC(c2ccc(Cl)cc2Cl)c2cc(Cl)c3cccnc3c2O)cc1` (stereo unspecified): the IC50 is 3.05 µM in test [1], 4.68 µM in test [2], 1.39 µM in test [3] and 0.86 µM in test [4].

Take `COc1ccc(CNC(=O)c2cc3c(=O)n4ccccc4nc3n(CCc3ccccc3)c2=N)cc1`: the IC50 in test [1] was 4.27 µM; in test [2] it was 0.686 µM; in test [3], 4.74 µM; in test [4] it was 0.1 µM.

In the case of `COc1ccc(-c2cc(=O)oc3c4c(ccc23)OCN(Cc2ccc(F)cc2)C4)cc1`, the IC50 worked out at 0.29 µM in test [1], 0.071 µM in test [2], 14.8 µM in test [3] and 2.95 µM in test [4].

With `COc1ccc(NC(=O)C2c3ccccc3C(=O)N(CC(C)C)C2c2cccs2)cc1Cl` (stereo unspecified), the IC50 in test [1] is 2.52 µM; in test [2] it was 4.69 µM; in test [3], 6.87 µM; in test [4] it was 3.15 µM.

In the case of `CCCN(CCC)CCCNC(=O)c1cc2c(-c3ccc(OC)c(OC)c3)nn(C)c2s1`, the IC50 in test [1] was determined as 3.32 µM; in test [2], 5.5 µM; in test [3] it was 19.4 µM; in test [4] it was 11 µM.

On to `COc1ccc(C2Sc3ccccc3N=C3C2=C(O)c2ccccc23)cc1` (stereo unspecified), for which the half-inhibitory concentration (IC50) in test [1] is 4.09 µM; in test [2], 7.09 µM; in test [3], 15.8 µM; in test [4], 13.9 µM.

With `O=C(Nc1cccc(C2=NCCN2)c1)Nc1cccc(C2=NCCN2)c1` [IMIDOCARB], the IC50 was 0.5 µM in test [1], 0.081 µM in test [2], 0.052 µM in test [3] and 0.059 µM in test [4].

Consider `CCOc1ccc2nc(C)cc(Nc3ccc(Br)cc3)c2c1`, for which the half-inhibitory concentration (IC50) worked out at 0.6 µM in test [1], 15.2 µM in test [2], 7.13 µM in test [3] and 1.07 µM in test [4].

`Clc1cc(Br)ccc1-c1ccc(CNCC2CCNCC2)o1`: the IC50 in test [1] was found to be 4.19 µM; in test [2], 12.4 µM; in test [3], 5.93 µM; in test [4] it was 0.33 µM.

For `O=C(c1ccccc1F)N(Cc1ccc(Cl)cc1)c1ccccn1`, the IC50 came out at 4.19 µM in test [1], 6.06 µM in test [2], 18.2 µM in test [3] and 16.5 µM in test [4].

For the compound `COc1ccc(C(C)=O)cc1N1C(=O)C2C(C1=O)C1(c3ccccc3)C(=O)C2(c2ccccc2)C(c2ccc(C)cc2)=C1c1ccc(C)cc1` (stereo unspecified), the half-inhibitory concentration (IC50) in test [1] is 15.5 µM; in test [2] it was 8.46 µM; in test [3], 16.9 µM; in test [4], 17.5 µM.

For `Cc1ccc(NC(=O)Nc2cccc(Cl)c2)cc1F`, the IC50 in test [1] was 10 µM; in test [2] it was 0.074 µM; in test [3] it was 14.3 µM; in test [4] it was 11.1 µM.

For `CCOc1ccc(CN2CCN(CC(O)COc3ccc(OCC(O)CN4CCN(Cc5ccc(OCC)cc5)CC4)cc3)CC2)cc1` (stereo unspecified), the IC50 in test [1] turned out to be 0.13 µM; in test [2], 0.37 µM; in test [3] it was 0.45 µM; in test [4], 0.05 µM.

In the case of `CC(=O)c1ccc(NC(=O)CSc2nc(-c3ccccc3Cl)ns2)cc1`, the IC50 amounted to 10 µM in test [1], 3.34 µM in test [2], 0.65 µM in test [3] and 0.86 µM in test [4].

Regarding `COCCNC(=O)c1ccc(OC2CCN(Cc3ccc(F)c(F)c3)CC2)c(Cl)c1`, the IC50 came out at 0.98 µM in test [1], 1 µM in test [2], 17.2 µM in test [3] and 0.27 µM in test [4].

For `O=C(NC1CCN(Cc2ccccc2)CC1)c1cc(C(=O)NC2CCN(Cc3ccccc3)CC2)cc(C(=O)NC2CCN(Cc3ccccc3)CC2)c1`, the 50% inhibitory concentration (IC50) in test [1] stood at 0.077 µM; in test [2], 5.3 µM; in test [3], 15.2 µM; in test [4] it was 0.06 µM.

As to `COc1ccc(C=C2SC(Nc3ccc(F)cc3)=NC2=O)c(OC)c1`, the IC50 in test [1] is 0.082 µM; in test [2], 0.836 µM; in test [3], 4.61 µM; in test [4] it was 0.1 µM.

As for `Cc1ccc(S(=O)(=O)c2c(COC(=O)c3cccc(C)c3)c(-c3ccccc3)nn2C)cc1`, the IC50 in test [1] turned out to be 1 µM; in test [2], 20.4 µM; in test [3], 12.7 µM; in test [4] it was 0.068 µM.

In the case of `COc1ccc(-c2nonc2NC(=O)c2cccc(C)c2)cc1OC`, the IC50 in test [1] came out at 0.69 µM; in test [2] it was 10 µM; in test [3], 5.64 µM; in test [4] it was 0.078 µM.

For `CCOc1cc(Br)c(C(C)NC(=O)c2cccc(OC)c2)cc1OCC` (stereo unspecified), the IC50 in test [1] worked out at 25 µM; in test [2], 13.3 µM; in test [3] it was 12.4 µM; in test [4], 10 µM.

Consider `COc1ccc(C2=C(c3ccc(OC)cc3)C3(c4ccccc4)C(=O)C2(c2ccccc2)C2C(=O)N(c4ccc(C)cc4)C(=O)C23)cc1` (stereo unspecified), for which the IC50 in test [1] stood at 14.1 µM; in test [2] it was 14.7 µM; in test [3], 14.2 µM; in test [4] it was 15.4 µM.

In the case of `CC1CN(C(=O)c2sc3ccccc3c2Cl)CC(C)O1` (stereo unspecified), the IC50 was 18.2 µM in test [1], 19.2 µM in test [2], 23.1 µM in test [3] and greater than 25 µM in test [4].

`COc1ccc(Nc2nc(N/N=C/c3ccc(O)cc3)nc(Nc3ccc([N+](=O)[O-])cc3)n2)cc1`: the IC50 in test [1] worked out at 0.05 µM; in test [2] it was 5.09 µM; in test [3] it was 15.9 µM; in test [4], 0.081 µM.

With `OC(CNC1CCCCC1)Cn1c2ccccc2c2ccccc21` (stereo unspecified), the IC50 was 17.3 µM in test [1], 13.8 µM in test [2], 17.3 µM in test [3] and 17.3 µM in test [4].

`CCN(CC)CCn1c(=N)n(CC(O)c2ccc(Cl)c(Cl)c2)c2ccccc21` (stereo unspecified): the IC50 in test [1] came to 17.2 µM; in test [2], 5.62 µM; in test [3], 3.91 µM; in test [4], 10.1 µM.

Consider `Brc1ccc(Nc2nc3ccccc3nc2Nc2ccc(Br)cc2)cc1`, for which the 50% inhibitory concentration (IC50) is 3.73 µM in test [1], 5.09 µM in test [2], 4.53 µM in test [3] and 2.09 µM in test [4].

For the compound `CC1CC(C)CN(C(=O)c2ccc(Cl)cc2Cl)C1` (stereo unspecified), the IC50 in test [1] turned out to be 14.7 µM; in test [2], 3.9 µM; in test [3] it was 19.4 µM; in test [4] it was 6.8 µM.

Regarding `COc1ccc(-c2cc3c(SCC(=O)Nc4cc(C(F)(F)F)ccc4Cl)nccn3n2)cc1`, the IC50 in test [1] is 17.1 µM; in test [2] it was 9.61 µM; in test [3], 25 µM; in test [4] it was greater than 25 µM.

On to `COc1ccc2c(c1OC)C(=O)N1c3ccccc3N=C(c3ccc(C)cc3)CC21` (stereo unspecified), for which the IC50 in test [1] turned out to be 16.1 µM; in test [2] it was 17.1 µM; in test [3] it was 14.6 µM; in test [4], 13 µM.

Take `CC(=O)Nc1nnc(SCc2c(C)cc(C(C)(C)C)cc2C)s1`: the IC50 in test [1] is 11.4 µM; in test [2], 12.8 µM; in test [3], 15.8 µM; in test [4], greater than 25 µM.

`COc1cc(CNCCc2ccc(Cl)cc2)cc(OC)c1O`: the half-inhibitory concentration (IC50) stood at 5.81 µM in test [1], 6.85 µM in test [2], 12.6 µM in test [3] and 10 µM in test [4].

Turning to `O=C(Nc1nc(-c2ccccn2)cs1)c1ccccc1Br`, the IC50 stood at 1 µM in test [1], 1 µM in test [2], 5.5 µM in test [3] and 4.6 µM in test [4].

Values taken from ChEMBL document CHEMBL3301464, “MMV Malaria Box anti-babesial screening”.
